Source: patent publication US7223760B2, “Substituted triazole compounds” (SmithKline Beecham Corporation, priority 1998, dated 2007)

How the values were obtained:
Interleukin-1 (IL-1) = Interleukin-1 (IL-1) production by LPS-stimulated human peripheral blood monocytes; type: cell-based; conditions: Monocyte, lipopolysaccharide 50 ng/ml, 24 h
Procedure: Human peripheral blood monocytes are isolated and purified from either fresh blood preparations from volunteer donors, or from blood bank buffy coats, according to the procedure of Colotta et al, J Immunol, 132, 936 (1984). These monocytes (1×10^6) are plated in 24-well plates at a concentration of 1–2 million/ml per well. The cells are allowed to adhere for 2 hours, after which time non-adherent cells are removed by gentle washing. Test compounds are then added to the cells for 1 h before the addition of lipopolysaccharide (50 ng/ml), and the cultures are incubated at 37° C. for an additional 24 h. At the end of this period, culture supernatants are removed and clarified of cells and all debris. Culture supernatants are then immediately assayed for IL-1 biological activity, either by the method of Simon et al., J. Immunol. Methods, 84, 85, (1985) (based on ability of IL-1 to stimulate a Interleukin 2 producing cell line (EL-4) to secrete IL-2, in concert with A23187 ionophore) or the method of Lee et al., J. ImmunoTherapy, 6 (1), 1–12 (1990) (ELISA assay).

CSBP/p38 = target: T1, CSBP/p38 (Homo sapiens, UniProt Q16539); experiment: CSBP/p38 Kinase Assay (32P transfer to T669 peptide); type: biochemical; conditions: "in this binding assay or a similar assay"; read-out: positive inhibitory activity, IC50
T1 construct: made in house; host or cells: yeast
Procedure: This assay measures the CSBP/p38-catalyzed transfer of ^32p from [a-^32P]ATP to threonine residue in an epidermal growth factor receptor (EGFR)-derived peptide (T669) with the following sequence: […] (residues 661–681). (See Gallagher et al., “Regulation of Stress Induced Cytokine Production by Pyridinyl Imidazoles: Inhibition of CSBP Kinase”, BioOrganic & Medicinal Chemistry, 1997, 5, 49–64).
Reactions were carried in round bottom 96 well plate (from Corning) in a […]. Reactions contained (in final concentration): 25 mM Hepes, pH 7.5; 8 mM MgCl2; 0.17 mM ATP (the Km[ATP] of p38 (see Lee et al., Nature 300, n72 pg. 639–746 (December 1994)); 2.5 uCi of [g-32P]ATP; 0.2 mM sodium orthovanadate; 1 mM DTT; 0.1% BSA; 10% glycerol; 0.67 mM T669 peptide; and 2–4 nM of yeast-expressed, activated and purified p38. Reactions were initiated by the addition of [gamma-32P]Mg/ATP, and incubated for 25 min. at 37° C. Inhibitors (dissolved in DMSO) were incubated with the reaction mixture on ice for 30 minutes prior to adding the 32P-ATP. Final DMSO concentration was 0.16%. Reactions were terminated by adding 10 ul of 0.3 M phosphoric acid, and phosphorylated peptide was isolated from the reactions by capturing it on p81 phosphocellulose filters. Filters were washed with 75 mM phosphoric acids, and incorporated 32P was quantified using beta scintillation counter. […]

T1 sequence (Q16539 whole entry): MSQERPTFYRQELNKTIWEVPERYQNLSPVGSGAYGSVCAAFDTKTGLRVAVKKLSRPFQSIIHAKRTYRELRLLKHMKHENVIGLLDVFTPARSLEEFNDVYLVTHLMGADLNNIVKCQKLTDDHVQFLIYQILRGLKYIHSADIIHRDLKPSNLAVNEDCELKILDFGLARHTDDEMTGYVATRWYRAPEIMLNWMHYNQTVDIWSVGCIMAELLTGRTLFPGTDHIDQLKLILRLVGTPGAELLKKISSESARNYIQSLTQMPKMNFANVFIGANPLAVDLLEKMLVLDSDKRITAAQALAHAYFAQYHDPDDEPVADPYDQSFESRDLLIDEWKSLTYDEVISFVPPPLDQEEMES

IC50 (Interleukin-1 (IL-1)) [µM]	IC50 (CSBP/p38) [µM]	Compound
< 7	–	Fc1ccc(-c2nc(-c3ccccc3)nn2-c2ccncc2)cc1 [Example 1, 1-(Pyrid-4-yl)-3-phenyl-5-(4-fluorophenyl)-1,2,4-triazole]
–	< 50	Nc1cc(-n2nc(-c3ccccc3)nc2-c2ccc(F)cc2)ncn1 [Example 2, 1-(6-Aminopyrimidin-4-yl)-3-phenyl-5-(4-fluorophenyl)-1,2,4-triazole]
